This passage reports IC50 results from patent US12281122B1, “PI3K inhibitors” (Cogent Biosciences, Inc., priority 2023, dated 2025).

The test system of assay [1] is SKBR3 (PI3Kα-Wild Type) cell line. Briefly: HTRF phospho-AKT(S473) cell assay in SKBR3 cells. The conditions noted are these: Homo sapiens, SK-BR-3; HTRF phospho-AKT(S473), SKBR3 (PI3Kα-Wild Type) cells, 2 hours compound incubation, PDGF-BB stimulated. The assay is classed as cell-based, human. In a few lines:
(§1)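 pAKT(S473) in lysates read by HTRF after a 2 h, 37 °C compound exposure (12-point 1:3 series, max 0.5% DMSO). SKBR3 (wild type, top 10 μM) received 70 ng/ml PDGF-BB during the final 15 min; T47D (H1047R, top 5 μM) was unstimulated. IC50 values derived from the dose-response.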

Assay [2] has as its system T47D (PI3Kα-H1047R) cell line. Briefly: HTRF phospho-AKT(S473) cell assay in T47D cells. The assay is classed as cell-based, human. To be noted: Homo sapiens; HTRF phospho-AKT(S473), T47D (PI3Kα-H1047R) cells, 2 hours compound incubation. In a few lines: as §1
(Time-resolved FRET reads energy transfer from a long-lived donor to a nearby acceptor.)

As a reminder, the IC50 is the concentration that inhibits the measured activity by half. For the compound `Cc1cc([C@@H](C)Nc2ccc(Cl)nc2C(=O)NS(C)(=O)=O)c2nc(N3C[C@@H]4[C@H](C3)[C@H]4c3noc(C)n3)n(C)c(=O)c2c1` [Compound 465, 6-chloro-3-(((R)-1-(3,6-dimethyl-2-((1R,5S,6R)-6-(5-methyl-1,2,4-oxadiazol-3-yl)-3-azabicyclo[3.1.0]hexan-3-yl)-4-oxo-3,4-dihydroquinazolin-8-yl)ethyl)amino)-N-(methylsulfonyl) picolinamide], the values for the IC50 in assay [1] and in assay [2] were 1000 to 5000 nM and < 250 nM, respectively.
In the same order, the values of `Cc1cc([C@@H](C)Nc2ccc(Cl)nc2C(=O)NS(C)(=O)=O)c2nc(N3C[C@@H]4[C@H](C3)[C@H]4c3nn(C)cc3F)n(C3CC3)c(=O)c2c1` [Compound 466, 6-chloro-3-(((R)-1-(3-cyclopropyl-2-((1R,5S,6R)-6-(4-fluoro-1-methyl-1H-pyrazol-3-yl)-3-azabicyclo[3.1.0]hexan-3-yl)-6-methyl-4-oxo-3,4-dihydroquinazolin-8-yl)ethyl)amino)-N-(methylsulfonyl) picolinamide] are ≥ 5000 nM and 250 to 500 nM.
In the same order, the values of `CCn1ncc(F)c1C1CCN(c2nc3c([C@@H](C)Nc4ccc(Cl)nc4C(=O)NS(C)(=O)=O)cc(C)cc3c(=O)n2C)CC1` [Compound 467, (R)-6-chloro-3-((1-(2-(4-(1-ethyl-4-fluoro-1H-pyrazol-5-yl)piperidin-1-yl)-3,6-dimethyl-4-oxo-3,4-dihydroquinazolin-8-yl)ethyl)amino)-N-(methylsulfonyl) picolinamide] are ≥ 5000 nM and < 250 nM.
In the same order, the values of `Cc1cc([C@@H](C)Nc2ccc(Cl)nc2C(=O)NS(C)(=O)=O)c2nc(N3CCC(c4nccc(C)n4)CC3)n(C)c(=O)c2c1` [Compound 468, (R)-6-chloro-3-((1-(3,6-dimethyl-2-(4-(4-methylpyrimidin-2-yl)piperidin-1-yl)-4-oxo-3,4-dihydroquinazolin-8-yl)ethyl)amino)-N-(methylsulfonyl) picolinamide] are ≥ 5000 nM and < 250 nM.
For the compound `Cc1cc([C@@H](C)Nc2ccc(Cl)nc2C(=O)NS(C)(=O)=O)c2nc(N3CCC(c4ncn(CC(F)(F)F)n4)CC3)n(C)c(=O)c2c1` [Compound 469, (R)-6-chloro-3-((1-(3,6-dimethyl-4-oxo-2-(4-(1-(2,2,2-trifluoroethyl)-1H-1,2,4-triazol-3-yl)piperidin-1-yl)-3,4-dihydroquinazolin-8-yl)ethyl)amino)-N-(methylsulfonyl) picolinamide], the values for the IC50 in assay [1] and in assay [2] were ≥ 5000 nM and 250 to 500 nM, respectively.
With `Cc1cc([C@@H](C)Nc2ccc(Cl)nc2C(=O)NS(C)(=O)=O)c2nc(N3C[C@@H]4[C@H](C3)[C@H]4c3ccn(C(F)F)n3)n(C)c(=O)c2c1` [Compound 470, 6-chloro-3-(((R)-1-(2-((1R,5S,6R)-6-(1-(difluoromethyl)-1H-pyrazol-3-yl)-3-azabicyclo[3.1.0]hexan-3-yl)-3,6-dimethyl-4-oxo-3,4-dihydroquinazolin-8-yl)ethyl)amino)-N-(methylsulfonyl) picolinamide], the figures for the concentration for half-maximal inhibition (IC50) in assay [1] and in assay [2] were 1000 to 5000 nM and < 250 nM, respectively.
For `Cc1cc([C@@H](C)Nc2ccc(Cl)nc2C(=O)NS(C)(=O)=O)c2nc(N3C[C@@H]4[C@H](C3)[C@H]4c3ccnn3C(F)F)n(C)c(=O)c2c1` [Compound 471, 6-chloro-3-(((R)-1-(2-((1R,5S,6R)-6-(1-(difluoromethyl)-1H-pyrazol-5-yl)-3-azabicyclo[3.1.0]hexan-3-yl)-3,6-dimethyl-4-oxo-3,4-dihydroquinazolin-8-yl)ethyl)amino)-N-(methylsulfonyl) picolinamide], the IC50 is 1000 to 5000 nM in assay [1] and < 250 nM in assay [2].
For `COCCn1ncc(F)c1C1CCN(c2nc3c([C@@H](C)Nc4ccc(Cl)nc4C(=O)NS(C)(=O)=O)cc(C)cc3c(=O)n2C)CC1` [Compound 472, (R)-6-chloro-3-((1-(2-(4-(4-fluoro-1-(2-methoxyethyl)-1H-pyrazol-5-yl)piperidin-1-yl)-3,6-dimethyl-4-oxo-3,4-dihydroquinazolin-8-yl)ethyl)amino)-N-(methylsulfonyl) picolinamide], the IC50 in assay [1] is ≥ 5000 nM; in assay [2] it was < 250 nM.
With `Cc1cc([C@@H](C)Nc2ccc(Cl)nc2C(=O)NS(C)(=O)=O)c2nc(N3C[C@@H]4[C@H](C3)[C@H]4c3cc4ccccn4n3)n(C)c(=O)c2c1` [Compound 473], the half-maximal inhibitory concentration (IC50) is ≥ 5000 nM in assay [1] and 250 to 500 nM in assay [2].
In the same order, the values of `COc1cc([C@H]2[C@@H]3CN(c4nc5c([C@@H](C)Nc6ccc(Cl)nc6C(=O)NS(C)(=O)=O)cc(C)cc5c(=O)n4C)C[C@@H]32)ccn1` [Compound 474, 6-chloro-3-(((R)-1-(2-((1R,5S,6S)-6-(2-methoxypyridin-4-yl)-3-azabicyclo[3.1.0]hexan-3-yl)-3,6-dimethyl-4-oxo-3,4-dihydroquinazolin-8-yl)ethyl)amino)-N-(methylsulfonyl) picolinamide] are ≥ 5000 nM and 250 to 500 nM.
Take `Cc1cc([C@@H](C)Nc2ccc(Cl)nc2C(=O)NS(C)(=O)=O)c2nc(N3C[C@@H]4[C@H](C3)[C@H]4c3ccn(C4CC4)n3)n(C)c(=O)c2c1` [Compound 475, 6-chloro-3-(((R)-1-(2-((1R,5S,6R)-6-(1-cyclopropyl-1H-pyrazol-3-yl)-3-azabicyclo[3.1.0]hexan-3-yl)-3,6-dimethyl-4-oxo-3,4-dihydroquinazolin-8-yl)ethyl)amino)-N-(methylsulfonyl) picolinamide]: the IC50 fell in the range of 1000 to 5000 nM in assay [1] and 250 to 500 nM in assay [2].
For `Cc1cc([C@@H](C)Nc2ccc(Cl)nc2C(=O)NS(C)(=O)=O)c2nc(N3C[C@@H]4[C@H](C3)[C@H]4c3csc(C)n3)n(C)c(=O)c2c1` [Compound 476, 6-chloro-3-(((R)-1-(3,6-dimethyl-2-((1R,5S,6R)-6-(2-methylthiazol-4-yl)-3-azabicyclo[3.1.0]hexan-3-yl)-4-oxo-3,4-dihydroquinazolin-8-yl)ethyl)amino)-N-(methylsulfonyl) picolinamide], the IC50 in assay [1] was in the range of 1000 to 5000 nM; in assay [2] it was 250 to 500 nM.
For the compound `Cc1cc([C@@H](C)Nc2ccc(Cl)nc2C(=O)NS(C)(=O)=O)c2nc(N3C[C@@H]4[C@H](C3)[C@H]4c3cc4n(n3)CCC4)n(C)c(=O)c2c1` [Compound 477, 6-chloro-3-(((R)-1-(2-((1R,5S,6R)-6-(5,6-dihydro-4H-pyrrolo[1,2-b]pyrazol-2-yl)-3-azabicyclo[3.1.0]hexan-3-yl)-3,6-dimethyl-4-oxo-3,4-dihydroquinazolin-8-yl)ethyl)amino)-N-(methylsulfonyl) picolinamide], the results for the IC50 in assay [1] and in assay [2] were 1000 to 5000 nM and < 250 nM, respectively.
As for `Cc1cc([C@@H](C)Nc2ccc(Cl)nc2C(=O)NS(C)(=O)=O)c2nc(N3C[C@@H]4[C@H](C3)[C@H]4c3cn(CC(F)(F)F)nn3)n(C)c(=O)c2c1` [Compound 478, 6-chloro-3-(((R)-1-(3,6-dimethyl-4-oxo-2-((1R,5S,6R)-6-(1-(2,2,2-trifluoroethyl)-1H-1,2,3-triazol-4-yl)-3-azabicyclo[3.1.0]hexan-3-yl)-3,4-dihydroquinazolin-8-yl)ethyl)amino)-N-(methylsulfonyl) picolinamide], the IC50 in assay [1] was 1000 to 5000 nM; in assay [2], < 250 nM.
With `COc1cc([C@H]2[C@@H]3CN(c4nc5c([C@@H](C)Nc6ccc(Cl)nc6C(=O)NS(C)(=O)=O)cc(C)cc5c(=O)n4C)C[C@@H]32)c(F)cn1` [Compound 479, 6-chloro-3-(((R)-1-(2-((1R,5S,6S)-6-(5-fluoro-2-methoxypyridin-4-yl)-3-azabicyclo[3.1.0]hexan-3-yl)-3,6-dimethyl-4-oxo-3,4-dihydroquinazolin-8-yl)ethyl)amino)-N-(methylsulfonyl) picolinamide], the IC50 in assay [1] was ≥ 5000 nM; in assay [2], 250 to 500 nM.
On the same counts, the results for `Cc1cc([C@@H](C)Nc2ccc(Cl)nc2C(=O)NS(C)(=O)=O)c2nc(N3CCC(c4cn(C)nn4)CC3)n(C)c(=O)c2c1` [Compound 480, (R)-6-chloro-3-((1-(3,6-dimethyl-2-(4-(1-methyl-1H-1,2,3-triazol-4-yl)piperidin-1-yl)-4-oxo-3,4-dihydroquinazolin-8-yl)ethyl)amino)-N-(methylsulfonyl) picolinamide] are 1000 to 5000 nM and < 250 nM.
On the same counts, the results for `Cc1cc([C@@H](C)Nc2ccc(Cl)nc2C(=O)NS(C)(=O)=O)c2nc(N3[C@@H]4CC[C@H]3C[C@H](n3cc(C)cn3)C4)n(C)c(=O)c2c1` [Compound 481, 6-chloro-3-(((R)-1-(3,6-dimethyl-2-((1R,3S,5S)-3-(4-methyl-1H-pyrazol-1-yl)-8-azabicyclo[3.2.1]octan-8-yl)-4-oxo-3,4-dihydroquinazolin-8-yl)ethyl)amino)-N-(methylsulfonyl) picolinamide] are 1000 to 5000 nM and 250 to 500 nM.
In the same order, the values of `Cc1cc([C@@H](C)Nc2ccc(Cl)nc2C(=O)NS(C)(=O)=O)c2nc(N3[C@@H]4CC[C@H]3C[C@@H](n3cc(C)cn3)C4)n(C)c(=O)c2c1` [Compound 482, 6-chloro-3-(((R)-1-(3,6-dimethyl-2-((1R,3R,5S)-3-(4-methyl-1H-pyrazol-1-yl)-8-azabicyclo[3.2.1]octan-8-yl)-4-oxo-3,4-dihydroquinazolin-8-yl)ethyl)amino)-N-(methylsulfonyl) picolinamide] are 1000 to 5000 nM and < 250 nM.
